Test results: patent publication US20240207265A1, “TREATMENT OF CNS DISEASES WITH sGC STIMULATORS” (Tisento Therapeutics Inc., priority 2021, published 2024)
pEC50: −log10 of the molar value.

molecular target: T1, human α2β1 sGC isozyme (Homo sapiens, UniProt P33402+Q02153); assay: cGMP assay in CHO-K1 cells stably expressing human α2β1 sGC isozyme; assay type: cell-based; conditions: 10 μM DETA-NONOate
T1 construct: host or cells: CHO-K1
T1 sequence (P33402 1-732): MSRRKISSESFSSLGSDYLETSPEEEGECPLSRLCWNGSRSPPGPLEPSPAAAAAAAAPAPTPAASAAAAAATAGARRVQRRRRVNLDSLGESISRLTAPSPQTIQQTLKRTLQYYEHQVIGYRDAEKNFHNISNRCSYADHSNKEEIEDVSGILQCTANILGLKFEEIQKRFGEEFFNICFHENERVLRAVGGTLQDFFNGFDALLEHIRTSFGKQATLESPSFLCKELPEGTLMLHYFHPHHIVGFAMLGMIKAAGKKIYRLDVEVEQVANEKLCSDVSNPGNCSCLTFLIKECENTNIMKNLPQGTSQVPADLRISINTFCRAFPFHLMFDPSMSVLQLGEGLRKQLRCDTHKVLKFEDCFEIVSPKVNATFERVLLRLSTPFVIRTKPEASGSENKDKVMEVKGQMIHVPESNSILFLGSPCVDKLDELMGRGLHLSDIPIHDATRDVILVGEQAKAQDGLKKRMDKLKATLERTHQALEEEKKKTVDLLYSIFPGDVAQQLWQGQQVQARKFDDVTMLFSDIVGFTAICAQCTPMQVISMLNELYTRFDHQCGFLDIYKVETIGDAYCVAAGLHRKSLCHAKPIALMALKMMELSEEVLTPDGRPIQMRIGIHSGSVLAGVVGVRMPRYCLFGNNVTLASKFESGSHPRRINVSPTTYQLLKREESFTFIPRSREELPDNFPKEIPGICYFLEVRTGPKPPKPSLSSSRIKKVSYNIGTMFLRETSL
T1 sequence (Q02153 1-619): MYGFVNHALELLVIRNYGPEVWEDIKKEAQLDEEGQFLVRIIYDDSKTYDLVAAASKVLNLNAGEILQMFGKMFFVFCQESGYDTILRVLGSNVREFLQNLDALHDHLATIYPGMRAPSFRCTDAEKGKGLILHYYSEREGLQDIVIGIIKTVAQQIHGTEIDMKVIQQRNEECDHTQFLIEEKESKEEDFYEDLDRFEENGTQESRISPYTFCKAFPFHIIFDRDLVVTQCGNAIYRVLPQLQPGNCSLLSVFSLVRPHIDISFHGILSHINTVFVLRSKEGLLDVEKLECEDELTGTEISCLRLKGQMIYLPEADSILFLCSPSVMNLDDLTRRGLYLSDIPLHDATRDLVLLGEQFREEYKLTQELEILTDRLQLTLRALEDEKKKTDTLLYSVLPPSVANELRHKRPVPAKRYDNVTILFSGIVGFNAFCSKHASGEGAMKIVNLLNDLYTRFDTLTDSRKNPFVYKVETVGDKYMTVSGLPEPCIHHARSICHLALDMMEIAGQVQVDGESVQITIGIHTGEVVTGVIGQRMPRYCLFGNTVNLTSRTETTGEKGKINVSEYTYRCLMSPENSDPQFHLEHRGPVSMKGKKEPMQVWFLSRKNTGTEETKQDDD
Protocol: sGC stimulators were dissolved in DMSO as a 10 mM solution and stored at −20° C. To achieve desired test concentrations, stock concentrations were serially diluted into DMSO and then diluted to the appropriate concentration in assay buffer.
CHO-K1 cells stably transfected with human α2β1 sGC isozyme (generated by GenScript for Ironwood) were cultured in F-12K medium (ATCC catalog #30-2004) with 10% fetal calf serum, 4 μg/mL puromycin (Gibco catalog #A11138-03) and 0.4 mg/mL of geneticin (Gibco catalog #10131-027) in a 95% humidified atmosphere containing 5% CO2 in air at 37° C. For GC activity assays, cells were seeded in 384 well poly-D-lysine coated flat bottom plates (Fisher Scientific #08-774-311) in either 50 μL or 70 μL medium at a density of either 3×10^4 cells/well or 15×10^3, respectively. Cells were incubated for 24 hours at 37° C. in a humidified chamber supplemented with 5% CO2.
For each test concentration, the compound was diluted in 100% DMSO to 100-fold of its final assay concentration. Immediately prior to the assay, the solution was diluted 20-fold into HBSS containing calcium, magnesium, and 50 μM DETA-NONOate (5× the final assay concentration). Medium was removed and cells were washed once with 40 μL of HBSS. Cells were then incubated with 40 μL of a solution containing 0.5 mM IBMX in HBSS for 15 min at 37° C. 10 μL from the sGC stimulator/HBSS/DETA-NONOate plate was added to the cells, which were incubated for an additional 20 min at 37° C. Final DMSO concentration was 1%, final DETA-NONOate concentration was 10 μM; and final compound concentrations were 30,000 nM, 6000 nM, 1200 nM, 240 nM, 48 nM, 9.6 nM, 1.92 nM, 0.384 nM, 0.077 nM, 0.015 nM, or 0.003 nM.
Following incubation with compound, assay buffer was removed and 50 μL of ice-cold 10% acetic acid+150 ng/mL internal standard (+3 cGMP) was added to each well. Samples were incubated on ice for 30-60 min. Following centrifugation at 4° C. for 5 min at 1000×g to pellet cell debris, the supernatant was transferred to a clean plate and the samples analyzed for cGMP content.
Data were analyzed with a 4-parameter fit (log(agonist) vs. response-variable slope) using GraphPad Prism Software v.8. The EC50 was interpolated from the curve fit and is defined as the concentration at which the compound elicits 50% of its maximal response. When the experiment was carried out multiple times for a given compound, the geometrical mean of all experiments is reported.

`Oc1nc(-c2cn3ccnc3c(Cc3ccccc3)n2)ncc1F` [Compound I-2, 2-(8-Benzylimidazo[1,2-a]pyrazin-6-yl)-5-fluoropyrimidin-4-ol] and `Oc1nc(-c2cn3ccnc3c(Cc3ccccc3F)n2)ncc1F` [Compound I-21] cannot be ordered by pEC50: 6.00 to 7.00 for the first, ≥ 7.00 for the second.

`Oc1nc(-c2cn3ccnc3c(Cc3cccc(F)c3F)n2)ncc1F` [Compound I-4, 2-(8-(2,3-Difluorobenzyl)imidazo[1,2-a]pyrazin-6-yl)-5-fluoropyrimidin-4-ol] and `Oc1nc(-c2cn3ccnc3c(Cc3cc(F)ccc3F)n2)ncc1F` [Compound I-20, 5-fluoro-2-(8-(2,5-difluorobenzyl)imidazo[1,2-a]pyrazin-6-yl)pyrimidin-4-ol] cannot be ordered by pEC50: ≥ 7.00 for the first, ≥ 7.00 for the second.

`Oc1nc(-c2cn3c(F)cnc3c(Cc3cc(F)ccc3F)n2)ncc1F` [Compound I-5] and `Cc1cc(F)c(Cc2nc(-c3ncc(F)c(O)n3)cn3c(F)cnc23)cc1F` [Compound I-18] cannot be ordered by pEC50: ≥ 7.00 for the first, ≥ 7.00 for the second.

`Cc1cc(F)c(Cc2nc(-c3nccc(O)n3)cn3ccnc23)cc1F` [Compound I-15, 2-(8-(2,5-difluoro-4-methylbenzyl)imidazo[1,2-a]pyrazin-6-yl)pyrimidin-4-ol] and `Oc1nc(-c2cn3ccnc3c(Cc3cc(F)ccc3F)n2)ncc1Cl` [Compound I-16, 5-chloro-2-(8-(2,5-difluorobenzyl)imidazo[1,2-a]pyrazin-6-yl)pyrimidin-4-ol] cannot be ordered by pEC50: 6.00 to 7.00 for the first, ≥ 7.00 for the second.

`Cc1cc(F)c(Cc2nc(-c3ncc(F)c(O)n3)cn3ncnc23)cc1F` [Compound I-19, 5-Fluoro-2-(8-(2,5-difluoro-4-methylbenzyl)-[1,2,4]triazolo[1,5-a]pyrazin-6-yl)pyrimidin-4-ol] and `Oc1nc(-c2cn3ncnc3c(Cc3ccccc3F)n2)ncc1F` [Compound I-23] cannot be ordered by pEC50: ≥ 7.00 for the first, 6.00 to 7.00 for the second.
